Assays:
[1] = test system: SD40–BRD4; experiment: Immunoblot, endogenous SD40-tagged BRD4 in K562 cells; format: cell-based, human; conditions: 24 hrs
Text: Next, we evaluated the installation of SD40 at endogenous genomic target genes in mammalian cells using twin prime editing (twin PE) ([54], [75]). We optimized prime editing parameters, including spacer position and prime editor construct ([30]), to insert SD40 at the C-terminus of PLK1 with 26% editing efficiency and 8.8% indel byproducts in HEK293T cells (Fig. 3E, fig. S13), enabling rapid isolation of a homozygous PLK1-SD40 cell line. PLK1 is an essential cell-state regulator ([76]), and complete knockdown for 24 hours is cytotoxic. […] We also used twin prime editing to install SD40 at the N-terminus of BRD4 yielding 7.7% knock-in of SD40 in K562 cells (Fig. 3E, S13) with 4.3% indel byproducts. […] For comparison, we also attempted scarless insertion of SD40 and FKBP12^F36V from the dTag system (324 base pairs) ([17]) at the N-terminus of BRD4 using Cas9 nuclease-directed HDR using two different sgRNAs and a double-strand donor DNA template. […]
HEK293T or K562 cells were plated at a density of 1.6 x 10^5 cells/well in a 24-well plate coated with poly-D-lysine (Corning) in 1 mL media (DMEM + 10% FBS for HEK293T cells and RPMI + 10% FBS for K562 cells). […] Protein concentration in clarified lysates was quantified using Pierce BCA Protein Assay Kit (Thermo Scientific) according to the manufacturer’s protocol. […]

[2] = target: CRBNCTD (Homo sapiens, UniProt Q96SW2); experiment: CRBNCTD MG-PACE circuit luminescence assay; format: cell-based; conditions: pomalidomide; degron SD0; vs DMSO
Chain of CRBNCTD (Q96SW2 318-426 limits assumed): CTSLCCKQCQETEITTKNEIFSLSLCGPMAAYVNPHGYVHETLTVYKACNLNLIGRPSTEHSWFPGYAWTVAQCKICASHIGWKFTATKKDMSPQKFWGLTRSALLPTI
Text: We also explored anchoring the circuit with the CRBN C-terminal domain (CTD) alone, which contains the IMiD binding pocket (Fig. 2B) ([65], [69]). […] We attributed the difference in maximum circuit activation to poor expression of full-length CRBN in E. coli. In our initial efforts, we used the CRBNCTD MG-PACE circuit, hypothesizing that higher activation (lower selection stringency) would better support weak-binding SD0 variants in the early stages of evolution.
Chemically competent S2060 cells were co-transformed with accessory and complementary plasmids (Table S1). Cells were plated on LB agar supplemented with carbenicillin, spectinomycin, and tetracycline and grown overnight at 37 °C. Single colonies were seeded in 1 mL DRM with carbenicillin and spectinomycin and grown overnight in a 37 °C shaker at 220 rpm. Overnight cultures were back-diluted 1:100 in DRM with carbenicillin and spectinomycin and grown at 37 °C with shaking until OD600 values reached 0.3-0.4. Polymyxin B nonapeptide (PMBN) was added to a final concentration of 3 μg/mL culture from a 1000x stock (3 mg/mL in DMSO). […] 96-well plates were then incubated in an Infinite M1000 Pro microplate reader (Tecan) at 37 °C with continuous shaking for ~1 hour prior to reading A600 nm and luminescence values. Raw luminescence values were then divided by the corresponding A600 nm values to normalize to cell density.

Structure (SMILES) | SD40–BRD4 degradation (in words) [1] | transcriptional activation at the highest dose [2]
O=C1CCC(N2C(=O)c3ccc(N4CCOCC4)cc3C2=O)C(=O)N1 (centres unmarked) [PT-179] | robust degradation | 
Nc1cccc2c1C(=O)N(C1CCC(=O)NC1=O)C2=O (centres unmarked) [pomalidomide, reference compound] |  | 13 fold
